According to patent US20230405003A1, “APPLICATION OF THYMIDINE DERIVATIVE IN PREPARATION OF DRUGS” (ONQUALITY PHARMACEUTICALS CHINA LTD., priority 2020, published 2023):
Where two headings read alike, the source gives them in different places.

Tests used:
Assay type in all cases: in vivo
[1] = test system: 5-FU-induced diarrhea in Balb/c mice; assay: 5-FU-induced diarrhea mouse model (70 mg/kg/d i.p. for three days); details: 5-FU 70 mg/kg/d i.p. three days; for Food Uptake / Survival Rate / Diarrhea Grade: 12 days; for Diarrhea Grade: score 0-4; for Δ % BW on Day 9: (BW day 0 − BW day 9)/BW day 0, ± SEM
Experimental: (§1) Male Balb/c mice (7-8 weeks, 23-25 g) were i.p. injected at a dose of 70 mg/kg/d, and the injection was performed for three days. The mice in the group of blank was injected with 0.9% NaCl, and evaluated for the effect by observing the change of diarrhea grade, food uptake, and weight change. The severity of diarrhea was scored in accordance with the following standards: 0: normal feces, 1: soft feces, 2: slightly wet, soft feces, 3: wet, unformed feces, with moderate coloration in perianal region, 4: watery feces with heavy coloration of hair in perianal region. The severity of diarrhea was evaluated by occurrence scores of various grades of diarrhea (Scores 0 to 4) and average score of diarrhea. […] The models were stable, and satisfied the experimental requirements.
The male Balb/c mice (7-8 weeks, 23-25 g) were fed and adapted for 1 week, and then divided into groups, with 10 mice in each group for administration test. 5-FU was dissolved in a 0.9% NaCl solution, and the mice in the model group and the treatment group were all i.p. injected at a dose of 70 mg/kg/d. The administration doses are shown in Table 6, and the modeling was completed in three days. While modeling of injection administration of 5-FU, the thymidine derivative or the combination of thymidine derivative and uridine derivative was administered by gavage, a series of compounds were dissolved in a PBS solution containing 5% DMSO+1% HPMC. The mice were daily observed for counting the diarrhea status, food uptake, weight change (A % BW) (the weight changes recorded in the table is the value on Day 9) and other information. After 12 days, the experiments were completed and statistically analyzed for the results.

[2] = test system: hand-foot syndrome caused by capecitabine in Balb/c mice; assay: Mouse model of hand-foot syndrome caused by capecitabine, gel application or oral administration; details: capecitabine 1000 mg/kg once daily; for inhibition in vivo at 300 mg/kg / inhibition in vivo at 0.5 % / inhibition in vivo at 2 % / inhibition in vivo at 5 % / inhibition in vivo at 1 % / inhibition in vivo at 3 % / inhibition in vivo at 200 mg/kg: Mus musculus; for inhibition in vivo at 300 mg/kg / inhibition in vivo at 200 mg/kg: 192 h, 8 days; for inhibition in vivo at 300 mg/kg: oral 300 mpk twice per day; for inhibition in vivo at 0.5 % / inhibition in vivo at 2 % / inhibition in vivo at 5 % / inhibition in vivo at 1 % / inhibition in vivo at 3 %: topical, 360 h; for inhibition in vivo at 0.5 %: gel 0.5 wt%; for inhibition in vivo at 0.5 % / inhibition in vivo at 2 % / inhibition in vivo at 5 % / inhibition in vivo at 1 % / inhibition in vivo at 3 % / Control Rate Forepaws / Control Rate Hindpaws: 15 days; for inhibition in vivo at 2 %: gel 2 wt%; for inhibition in vivo at 5 %: gel 5 wt%; for inhibition in vivo at 200 mg/kg: oral 200 mpk twice per day
Experimental: A mouse animal model was established. 6-week aged male Balb/c mice were administered with capecitabine by daily gavage. After a few days, mice's paws developed hand-foot syndrome symptoms (similar to the results of the rat model, such as, in FIG. 13). Similar to the human body, mice developed hand-foot syndrome in the forepaws and hind paws after oral administration of capecitabine. The causes of the two are the same, and the disorder is also very similar. Therefore, mice are very good animal models for simulating the hand-foot syndrome caused by capecitabine.
After Balb/c mice were fed and adapted for one week (about 20 g), the mice were divided into groups, with 10 mice in each group. Then, the mice were subject to gavage administration. Capecitabine was dissolved in normal saline with pH=8, and the gavage dose was not greater than 0.3 mL at each time. After gavage, the blank gel was applied to the forepaws and the hind paws (about 4*0.5 cm*0.5 cm) in group of blank gel, and gels containing different drugs were applied to the forepaws and the hind paws (about 4*0.5 cm*0.5 cm) in group of administration. After application, the mice were fixed in Elizabethan collar for 4 hours. After 4 hours, the mice were released, wiped with clean water to remove any residual drug at the application site, and allowed back to the cage. The gavage and application tests are repeated daily until the group of blank has developed obvious hand-foot syndrome. […] Additionally, the thymidine derivative and the combination of thymidine derivative and uridine derivative were orally administered for observing the relief of the hand-foot syndrome. In examples 41-48, thymidine derivative and/or uridine derivative were/was applied, and in examples 49-52, thymidine derivative and/or uridine derivative were/was administered orally.
Table 5 lists the combinations of animal experiments of capecitabine and thymidine derivative (or a combination of thymidine derivative and uridine derivative) and the corresponding experimental results (wherein the data in the column of control rate=the occurrence rate of hand-foot syndrome in group of blank—the occurrence rate of hand-foot syndrome in group of administration).
The effect of thymidine derivative or a combination of thymidine derivative and uridine derivative on a mouse model with chemotherapeutic drug (capecitabine)-induced hand-foot syndrome was tested according to the method in Examples 41-52. Wherein, the drugs were administered transdermally for Examples 119-120 and orally for Examples 121-123.
The test thymidine derivative or the combination of thymidine derivative and uridine derivative, as well as the final concentration of the test compounds were shown in Table 9. Table 9 lists the combinations of animal experiments of capecitabine and the thymidine derivative gel (or a compounded gel of thymidine derivative and uridine derivative) and the corresponding experimental results (wherein the data in the column of control rate=the occurrence rate of hand-foot syndrome in Group of blank—the occurrence rate of hand-foot syndrome in Group of administration).

[3] = test system: 5-FU-induced diarrhea in Balb/c mice; assay: 5-FU-induced diarrhea mouse model (175 mg/kg single i.p.); details: 5-FU 175 mg/kg single i.p., 50 mpk gavage; for Survival Rate / Average Diarrhea Grade: 6 days; for Average Diarrhea Grade: score 0-4
Experimental: 7-8-week-old male Balb/c mice were used to establish a 5-FU induced diarrhea model to test the effect of the thymidine derivative or the combination of thymidine derivative and uridine derivative on the relief of diarrhea.
Modeling dose of 5-Fu: 175 mg/kg; single administration, intraperitoneal injection (ip.);
Administration mode of the compound to test (thymidine derivative or combination of thymidine derivative and uridine derivative): single administration, by gavage, advance administration of the compound to test at various time points prior to intraperitoneal injection of 5-FU. The compound to test was administered 1 h prior to the administration of 5-FU, a certain amount of 5-FU was injected intraperitoneally 1 h later, and the compound to test was administered once again 7 h after the injection of 5-FU.
The mice were fed and adapted for one week, and then divided into groups, with 10 mice in each group for administration test.
as §1, with “The” for “Male Balb/c mice (7-8 weeks, 23-25 g) were i.p. injected at a dose of 70 mg/kg/d, and the injection was performed for three days. The”, “Group” for “group”, “evaluated” for “evaluated for”
5-FU was dissolved in a 0.9% NaCl solution, the mice in the model group and the treatment group were all i.p. injected at a dose of 175 mg/kg/d, […]. While modeling of injection administration of 5-FU, the thymidine derivative or the combination of thymidine derivative and uridine derivative was administered by gavage, and the compounds to test were dissolved in a PBS solution containing 5% DMSO+1% HPMC. Body weight was weighed daily to count the weight change (Δ % BW, the weight changes recorded in the table were the values on Day 6), and the food was weighed daily to calculate the food uptake. The mice were daily observed for their clinical status, e.g., activity, diarrhea, hair, fighting, etc. After 6 days, the experiments were completed and statistically analyzed for the results.

[4] = read-out: Control Rate Forepaws
[5] = read-out: Control Rate Hindpaws

## CC(=O)OCC1OC(n2cc(C)c(=O)[nH]c2=O)CC1OC(C)=O (stereo not shown) [T1]
[1]; 37 mpk BID PO
  Food Uptake: 155
  Survival Rate: 100%
  Diarrhea Grade: 1.4
  Δ % BW on Day 9: 4.3% ± 3.7
[1]; 75 mpk BID PO
  Food Uptake: 100
  Survival Rate: 80%
  Diarrhea Grade: 1.3
  Δ % BW on Day 9: 3.8% ± 1.6
[1]; 150 mpk BID PO
  Food Uptake: 89
  Survival Rate: 80%
  Diarrhea Grade: 1.5
  Δ % BW on Day 9: 16.3% ± 6.5
[2]; [4]
  inhibition in vivo at 300 mg/kg: 80%
  inhibition in vivo at 0.5 %: 30%
  inhibition in vivo at 2 %: 45.6%
  inhibition in vivo at 5 %: 67.8%
[2]; [5]
  inhibition in vivo at 300 mg/kg: 90%
  inhibition in vivo at 0.5 %: 20%
  inhibition in vivo at 2 %: 34.4%
  inhibition in vivo at 5 %: 78.9%

## CC(=O)O[C@H]1C[C@H](n2cc(C)c(=O)[nH]c2=O)O[C@@H]1CO [T2]
[1]; 75 mpk BID PO
  Food Uptake: 123
  Survival Rate: 100%
  Diarrhea Grade: 1.4
  Δ % BW on Day 9: 6.6% ± 3.1
[2]; [4]
  inhibition in vivo at 2 %: 40%
[2]; [5]
  inhibition in vivo at 2 %: 27.5%

## CC(=O)OC[C@H]1O[C@@H](n2cc(C)c(=O)[nH]c2=O)C[C@@H]1O [T3]
[1]; 50 mpk BID PO
  Food Uptake: 109
  Survival Rate: 70%
  Diarrhea Grade: 1.6
  Δ % BW on Day 9: 8.4% ± 3.2
[2]; [4]
  inhibition in vivo at 2 %: 20%
[2]; [5]
  inhibition in vivo at 2 %: 30%

## COc1ccc2cc([C@H](C)C(=O)OC[C@H]3O[C@@H](n4cc(C)c(=O)[nH]c4=O)C[C@@H]3O)ccc2c1 [T25]
[2]; [4]
  inhibition in vivo at 5 %: 44.4%
[2]; [5]
  inhibition in vivo at 5 %: 66.7%
[2]; transdermal 1% (wt %), read-out: Control Rate Forepaws
  inhibition in vivo at 1 %: 22.2%
[2]; transdermal 1% (wt %), read-out: Control Rate Hindpaws
  inhibition in vivo at 1 %: 44.4%
[2]; transdermal 3% (wt %), read-out: Control Rate Forepaws
  inhibition in vivo at 3 %: 25%
[2]; transdermal 3% (wt %), read-out: Control Rate Hindpaws
  inhibition in vivo at 3 %: 37.5%

## Cc1cn([C@H]2C[C@H](O)[C@@H](COC(=O)C(C)c3cccc(Oc4ccccc4)c3)O2)c(=O)[nH]c1=O (stereo partly drawn) [T27, ((2R,3S, 5R)-3-hydroxyl-5-(5-methyl-2,4-dioxy-3,4-dihydropyrimidin-1(2H)-yl)tetrahydrofuran-2-yl)2-(3-phenoxyphenyl)propionate Methyl]
[2]; transdermal 1% (wt %)
  Control Rate Forepaws: 50%
  Control Rate Hindpaws: 62.50%
[2]; transdermal 3% (wt %)
  Control Rate Forepaws: 42.86%
  Control Rate Hindpaws: 71.43%

## Cc1cn([C@H]2C[C@H](O)[C@@H](COC(=O)[C@H](C)c3ccc(CC(C)C)cc3)O2)c(=O)[nH]c1=O [T32]
[2]; [4]
  inhibition in vivo at 300 mg/kg: 71.4%
[2]; [5]
  inhibition in vivo at 300 mg/kg: 57.1%

## Cc1ccc(C(=O)c2ccc(CC(=O)OC[C@H]3O[C@@H](n4cc(C)c(=O)[nH]c4=O)C[C@@H]3O)n2C)cc1 [T36]
[3]
  Δ % BW (on Day 6): 2.25% ± 0.54%
  Survival Rate: 100%
  Average Diarrhea Grade: 1.6

## CC1=C(CC(=O)OC[C@H]2O[C@@H](n3cc(C)c(=O)[nH]c3=O)C[C@@H]2O)c2cc(F)ccc2/C1=C\c1ccc([S+](C)[O-])cc1 (stereo partly shown) [T40]
[2]; [4]
  inhibition in vivo at 200 mg/kg: 75%
[2]; [5]
  inhibition in vivo at 200 mg/kg: 88%

## Cc1cn([C@H]2C[C@H](OC(=O)C(C)c3cccc(C(=O)c4ccccc4)c3)[C@@H](CO)O2)c(=O)[nH]c1=O (stereo partly shown) [T50]
[3]
  Δ % BW (on Day 6): 2.08% ± 0.86%
  Survival Rate: 100%
  Average Diarrhea Grade: 1.1
